We go through nine compounds from US20220152031A1, “PYRIDAZINONES AND METHODS OF USE THEREOF” (Goldfinch Bio, Inc., priority 2019, published 2022).

Structures are written as SMILES.

The first experiment addresses T1, TRPC5 (Homo sapiens, UniProt Q9UL62).
T1 construct: expressed in transfected cells
T1 sequence (Q9UL62 1-973): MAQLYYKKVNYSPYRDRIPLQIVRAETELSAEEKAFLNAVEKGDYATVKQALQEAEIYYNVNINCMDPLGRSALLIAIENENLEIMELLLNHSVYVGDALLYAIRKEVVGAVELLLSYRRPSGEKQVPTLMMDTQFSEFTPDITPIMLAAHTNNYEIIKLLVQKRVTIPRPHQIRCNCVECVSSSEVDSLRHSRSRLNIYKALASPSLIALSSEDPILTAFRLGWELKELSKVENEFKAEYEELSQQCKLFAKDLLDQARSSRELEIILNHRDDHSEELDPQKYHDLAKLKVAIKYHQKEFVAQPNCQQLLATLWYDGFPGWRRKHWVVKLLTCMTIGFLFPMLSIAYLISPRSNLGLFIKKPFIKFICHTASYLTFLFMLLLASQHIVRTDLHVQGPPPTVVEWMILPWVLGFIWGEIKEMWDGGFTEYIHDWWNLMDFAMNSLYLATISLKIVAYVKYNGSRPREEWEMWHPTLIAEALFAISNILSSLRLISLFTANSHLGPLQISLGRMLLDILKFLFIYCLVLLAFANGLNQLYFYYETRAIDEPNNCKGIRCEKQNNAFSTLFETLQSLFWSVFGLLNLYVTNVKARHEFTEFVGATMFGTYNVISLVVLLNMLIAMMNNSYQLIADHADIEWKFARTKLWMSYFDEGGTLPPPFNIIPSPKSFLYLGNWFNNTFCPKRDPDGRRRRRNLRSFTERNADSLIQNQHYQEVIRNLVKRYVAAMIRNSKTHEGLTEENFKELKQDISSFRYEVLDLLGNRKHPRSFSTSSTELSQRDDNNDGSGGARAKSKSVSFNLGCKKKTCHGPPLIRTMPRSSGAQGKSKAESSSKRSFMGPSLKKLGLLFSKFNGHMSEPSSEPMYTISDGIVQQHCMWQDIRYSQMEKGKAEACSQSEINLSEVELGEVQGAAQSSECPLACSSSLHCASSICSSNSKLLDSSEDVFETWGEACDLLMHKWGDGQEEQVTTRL
Nature of the experiment: TRPC5 activity assay (FLIPR calcium fluorescence, HEK-TREx hTRPC5 cells). Format: cell-based. The following applies: HEK-TREx hTRPC5 cells, FLIPR, 30 μM Riluzole stimulation; read-out: TRPC5. As for the experimental part:
ICLN-1633 cells (HEK-TREx hTRPC5) expressing TRPC5 were generated as follows. Commercially available HekTrex-293 cells were seeded at 0.7×10^6 cells/well in a 1×6-well plate 24 hrs prior to transfection using 2 mL cell growth media containing no antibiotics (lx DMEM/high glucose (Hyclone #SH30022.02); 10% fetal bovine serum (Sigma) 2 mM sodium pyruvate, 10 mM HEPES). […] On day 2, 2 μg of plasmid DNA plus 6 μl of Xtreme-GENE HP reagent in Optimem (200 μl total volume) was prepared and incubated for 15 min at room temperature. This plasmid solution was then gently overlayed dropwise onto each well and the plate was gently swirled to mix complex with the media for approximately 30 seconds. Transfected cells were incubated at 37° C. in a 10% CO2 incubator for 24 hrs. The transfected cells were harvested and transferred into 2×150 mm dishes containing cell growth media with no antibiotics at 37° C.
The next day selection was initiated to generate a stable pool by adding cell growth media containing 150 μg/mL Hygromycin and 5 μg/mL Blasticidin and cells were allowed to grow. Media with the selection agent was changed every 1-2 days as needed to remove dead cells. After 7 days, the hygromycin concentration was reduced to 75 μg/mL and cells growth was allowed to continue.
Single clones were selected as follows. The stable pool was diluted to 10 cells/mL and seeded (100 μl/well) into 24×96 well plates (˜1 cell/well) and allowed to grow for 7 days in cell growth media. Fresh media (100 μl) was added and the cells allowed to grow for another 1-2 weeks and then stored frozen or used immediately.
10-point dose response curves were generated using the Echo-550 acoustic dispenser. Compound source plates were made by serially diluting compound stocks to create 10 mM, 1 mM, and 0.1 mM solutions in DMSO into Echo certified LDV plates. The Echo then serially spotted 100% DMSO stock solutions into source dose response plates to generate a 4-fold dilution scheme. 100% DMSO was added to the spotted dose response plates to bring the final volume to 5 μl. 300 nl of the dose response stock plate was then spotted into pre-incubation and stimulation assay plates. 50 μl of pre-incubation buffer and 100 μl of stimulation buffer was then added to the plates resulting in a final assay test concentration range of 30 μM to 0.0001 μM with a final DMSO concentration of 0.3%.
Human ICLN-1633 cells expressing were plated onto 384 well, black PDL-coated microplates and maintained in TRPC5 growth media the day prior to use for experiments. TRPC5 expression was induced by the application of 1 μg/mL tetracycline at the time of plating. […] Cells are incubated at room temperature, protected from light, for 60-90 minutes. After the incubation period, the dye is removed and replaced with 10 μl of EBSS. Cell, pre-incubation and stimulation plates are loaded onto the FLIPR-II and the assay is initiated. The FLIPR measures a 10 second baseline and then adds 10 μl of 2× compounds (or controls). Changes in fluorescence are monitored for an additional 5 minutes. After the 5 minute pre-incubation, 20 μl of 2× Riluzole (with 1× compound or controls) is added to the cell plate. The final Riluzole stimulation concentration in the assay is 30 μM. After the Riluzole addition, changes in fluorescence are monitored for an additional 5 minutes.
Compound modulation of TRPC5 calcium response was determined as follows. After the Englerin A, fluorescence was monitored for a 5-minute period. The maximum relative fluorescence response (minus the control response of 1 μM of an internal control compound known to maximally block TRPC5 calcium response, the “REF INHIB” in the formula below) was captured and exported from the FLIPR.
Compound effect is calculated as % inhibition using the following formula: […]
wherein “RFU” is the relative fluorescent units.
For the compound `Cn1c2c(c(Oc3ccc(F)cc3C(F)(F)F)nc1=O)CCN(c1cn[nH]c(=O)c1Cl)C2` [Compound 138, 4-Chloro-5-[4-[4-fluoro-2-(trifluoromethyl)phenoxy]-1-methyl-2-oxo-1H,2H,5H,6H,7H,8H-pyrido[3,4-d]pyrimidin-7-yl]-2,3-dihydropyridazin-3-one], the IC50 was in the range of 50 to 500 nM.
The same measure, in the same setting: in the case of `C[C@@H](O)c1nc2c(c(Oc3ccc(F)cc3Cl)n1)CCN(c1cn[nH]c(=O)c1Cl)C2` [Compound 119] it was less than 50 nM.
Still for that read-out and setting: in the case of `CCc1c(F)cccc1Oc1ncnc2c1CCN(c1cn[nH]c(=O)c1Cl)C2` [Compound 109, 4-Chloro-5-[4-(2-ethyl-3-fluorophenoxy)-5H,6H,7H,8H-pyrido[3,4-d]pyrimidin-7-yl]-2,3-dihydropyridazin-3-one] it was less than 50 nM; in that of `C[C@@H]1CCN(Cc2ccccc2)C[C@@H]1N(C)c1ncnc2c1CCN(c1cn[nH]c(=O)c1Cl)C2` [Compound 133, 5-(4-[[(3R,4R)-1-Benzyl-4-methylpiperidin-3-yl](methyl)amino]-5H,6H,7H,8H-pyrido[3,4-d]pyrimidin-7-yl)-4-chloro-2,3-dihydropyridazin-3-one], 50 to 500 nM; in that of `O=c1[nH]ncc(N2CCc3c(Oc4ccc(F)cc4C(F)(F)F)ccnc3C2)c1Cl` [Compound 140, 4-chloro-5-[4-[4-fluoro-2-(trifluoromethyl)phenoxy]-5,6,7,8-tetrahydro-1,7-naphthyridin-7-yl]-2,3-dihydropyridazin-3-one], 50 to 500 nM.
In the case of `COc1nc2c(c(Oc3ccccc3C(F)(F)F)n1)CCN(c1cn[nH]c(=O)c1Cl)C2` [Compound 110, 4-Chloro-5-[2-methoxy-4-[2-(trifluoromethyl)phenoxy]-5H,6H,7H,8H-pyrido[3,4-d]pyrimidin-7-yl]-2,3-dihydropyridazin-3-one], the IC50 lay in the range of 50 to 500 nM.
Still for that read-out and setting: in the case of `C[C@H]1CCN(Cc2ccccc2)C[C@H]1N(C)c1ncnc2c1CCN(c1cn[nH]c(=O)c1Cl)C2` [Compound 133a] it was 500 to 1000 nM; in that of `N#Cc1cccc(Oc2ncnc3c2CCN(c2cn[nH]c(=O)c2Cl)C3)c1C(F)(F)F` [Compound 111, 3-[[7-(5-Chloro-6-oxo-1,6-dihydropyridazin-4-yl)-5H,6H,7H,8H-pyrido[3,4-d]pyrimidin-4-yl]oxy]-2-(trifluoromethyl)benzonitrile], 50 to 500 nM.

Staying with this experiment, now noted: Table 4, HEK-TREx hTRPC5; read-out: TRPC5-FLIPR IC50.
On to `CCc1ncccc1[C@@H](C)n1nnc2c1CCN(c1cn[nH]c(=O)c1Cl)C2` [MS, 4-chloro-5-[1-[(1R)-1-(2-ethylpyridin-3-yl)ethyl]-1H,4H,5H,6H,7H-[1,2,3]triazolo[4,5-c]pyridin-5-yl]-2,3-dihydropyridazin-3-one], for which the IC50 is 0.01 to 1000 nM.

Still in this experiment, the particulars now being: Table 7, HEK-TREx hTRPC5; read-out: TRPC5-FLIPR IC50.
On to `CCc1ncccc1[C@@H](C)n1nnc2c1CCN(c1cn[nH]c(=O)c1Cl)C2` [MS, 4-chloro-5-[1-[(1R)-1-(2-ethylpyridin-3-yl)ethyl]-1H,4H,5H,6H,7H-[1,2,3]triazolo[4,5-c]pyridin-5-yl]-2,3-dihydropyridazin-3-one], for which the IC50 was in the range of 0.01 to 1000 nM.
